From patent US9993480B2, “mTOR/JAK inhibitor combination therapy” (NOVARTIS PHARMA AG, priority 2011, dated 2018)
“And” between values parts separate entries of the source, which are not always exact repeats. Identical values can stand only once. “Also recorded” adds a separate entry of the source. Like-named read-outs stand apart in the source and are kept apart here.

Key:
SET2 cells [1] = assay: Apoptosis by Annexin V flow cytometry; format: cell-based, human; conditions: SET2 cells exposed for 48 h
From the text: Results are expressed ad percent viable cells compared to control wells containing vehicle (DMSO) only. The fraction of necrotic cells was identified as the double-positive Annexin V/propidium iodide cells.

HEL cells [2] = assay: Clonogenic assay in agar; conditions: Homo sapiens, 168 h, read-out: IC50, clonogenic assay
[3] = system: Peripheral Blood mononuclear cells from PV patients; assay: EEC colony formation assay; format: cell-based; conditions: Homo sapiens
K562 cells [4] = assay: Clonogenic assay in agar; conditions: Homo sapiens, K562, 168 h, read-out: IC50, clonogenic assay
SET2 cells [5] = assay: Proliferation inhibition assay (WST-1); format: cell-based, human
From the text: (§1) The HEL, SET2 and K562 human cell lines were purchased from the German Collection of Microorganisms and Cell Cultures (DSMZ, Braunschweig, Germany). Murine BaF/3 and BaF/3-EPOR cells expressing JAK2 wild-type (wt) or JAK2V617F were donated by R. Skoda (Basel, Switzerland).

SET2 cells [6] = assay: Clonogenic assay in agar
[7] = system: JAK2, STAT5, and 4EBP1 in SET2 cells; assay: Western blot of mTOR and JAK/STAT signaling; format: cell-based, human
Experimental: (§2) Cells were resuspended in RIPA lysis buffer (50 mM pH 7.4 Tris-HCl, 150 mM NaCl, 1% NP-40, 1 mMEDTA) containing a proteinase inhibitor cocktail (Halt Protease Inhibitor Cocktail Kit, PIERCE, Rockford, Ill., US) and subjected to sodium dodecyl sulphate polyacrylamide gel electrophoresis separation and western blotting onto Immunoblot PVDF membrane (BioRad, Hercules, Calif., US), according to standard protocols.
SET2 cells were incubated for 24 h with increasing concentrations of the drugs, and the level of total and phosphorylated JAK2, STAT5, and 4EBP1 was analyzed by western blot. Tubulin was used for loading normalization.

HEL cells [8] = assay: Proliferation inhibition assay (WST-1); format: cell-based, human
From the text: as §1

K562 cells [9] = assay: Proliferation inhibition assay (WST-1); format: cell-based, human
From the text: as §1

[10] = system: BaF/3 cells expressing JAK2V617F; assay: Proliferation inhibition assay (WST-1); format: cell-based, murine; conditions: Mus musculus, BaF3; BaF/3 V617F, absence of IL-3
From the text: as §1

[11] = system: BaF/3-EPOR cells expressing JAK2 wild-type; assay: Proliferation inhibition assay (WST-1); format: cell-based, murine; conditions: Mus musculus; BaF/3-EPOR WT; EPO in culture medium
From the text: as §1

[12] = system: BaF/3-EPOR cells expressing JAK2V617F; assay: Proliferation inhibition assay (WST-1); format: cell-based, murine
From the text: as §1

[13] = system: BaF/3 cells expressing JAK2 wild-type; assay: Proliferation inhibition assay (WST-1); format: cell-based, murine; conditions: Mus musculus, BaF3; BaF/3 WT; mIL-3 in culture medium
From the text: as §1

[14] = system: Ba/F3 epoR JAK2 wild-type cells; assay: Clonogenic assay in agar; conditions: Mus musculus, BaF3, 168 h, read-out: IC50, clonogenic assay
HEL cells [15] = assay: Cell cycle distribution analysis by flow cytometry; format: cell-based, human; conditions: at IC50 concentration
[16] = system: 4E-BP1 and STAT5 in Ba/F3 and Ba/F3-EPOR cells; assay: Western blot of 4E-BP1 and STAT5 phosphorylation; format: cell-based, murine
Experimental: as §2
To better characterize the correlation between JAK2V617F mutation and mTOR activation, as well as the consequences of mTOR inhibition on STAT5 phosphorylation, BA/F3 and Ba/F3-EPOR cells were used. First, it was observed that 4E-BP1 was minimally phosphorylated in JAK2 wt Ba/F3 and Ba/F3-EPOR cells deprived of cytokines, while it was hyper-phosphorylated in V617F cells, supporting previous data on Akt constitutive activation in JAK2V617F-mutated cells. […] STAT5 phosphorylation was greater in V617F cells compared to IL-3- or EPO-deprived JAK2 wt Ba/F3 or Ba/F3-EPOR cells, and it did increase substantially after cytokine exposure.

[17] = system: CD34+ cells from MPN patients; assay: Clonogenic assay with JAK2V617F single-colony genotyping; format: cell-based, human; conditions: for % decrease V617F: RAD001 50 nM vs without
Experimental: Samples of peripheral blood (PB) or bone marrow (BM) were obtained from patients diagnosed with PV or PMF (2008 WHO criteria) under a protocol approved by Institutional Review Board of Azienda Ospedaliera-Universitaria Careggi and after obtaining an informed consent. Healthy donors of hematopoietic stem cells provided informed consent to donate excess CD34^+ cells. Research was carried out according to the principles of Declaration of Helsinki. CD34^+ cells were immunomagnetically selected as described. The JAK2V617F mutational status was determined by a quantitative real-time PCR assay in granulocytes.
BM mononuclear cells from MPN patients or control subjects were plated at 1×10^5/mL in methylcellulose (MethoCult; StemCell Technologies, Vancouver, Canada) supplemented with SCF 50 ng/mL, IL-3 10 ng/mL, IL-6 10 ng/mL, GM-CSF 10 ng/mL, G-CSF 10 ng/mL and EPO 3 U/mL for the growth of BFU-E and CFU-GM. EEC assay was performed by plating 2.5×10^5/mL PB mononuclear cells from PV patients in methylcellulose containing leukocyte-conditioned medium without EPO (StemCell Technol., cat. No. #04531). For the growth of CFU-Mk, 5×10^4/mL CD34^+ cells were plated in a 24-well plate in Megacult Collagen and medium with lipids (StemCell Technol.) supplemented with Thrombopoietin 50 ng/mL, IL-3 10 ng/mL, IL-6 10 ng/mL. Colonies were enumerated on day 14 according to standard criteria.
For JAK2V617F single-colony genotyping an allele-specific PCR assay was used. Well-separated colonies (at least 40 colonies per point) were individually plucked off the semisolid medium in 5 μL DNase/RNase-free water, lysed at 95° C. for 5 minutes, and subjected to PCR amplification and gel electrophoresis.

UKE-1 cells = assay: Clonogenic assay; format: cell-based; conditions: compared with K562
Ba/F3 JAK2 V617F cells = assay: Clonogenic assay in agar; conditions: Mus musculus, BaF3, 168 h, read-out: IC50, clonogenic assay
[18] = system: Ba/F3 epoR JAK2 V617F cells; assay: Clonogenic assay in agar; conditions: Mus musculus
SET2 cells [19] = assay: Cell cycle distribution analysis by flow cytometry; format: cell-based, human; conditions: at IC50 concentration
[20] = Homo sapiens, SET-2, read-out: IC50 of Cmp A in drug combination with PP242
[21] = Homo sapiens, SET-2, read-out: IC50 of Cmp A in drug combination with RAD001
[22] = SET2, 24 h, increasing concentrations
[23] = Homo sapiens, SET-2, SET2, individual drug, read-out: IC50, proliferation inhibition

N#CC[C@H](C1CCCC1)n1cc(-c2ncnc3[nH]ccc23)cn1 [Compound A, (3R)-3-cyclopentyl-3-[4-(7H-pyrrolo[2,3-d]pyrimidin-4-yl)-1H-pyrazol-1-yl]propanenitrile]
cell apoptosis (Annexin V-positive cells) (SET2 cells [1]): dose-dependently potent inducers of cell apoptosis; also recorded: potently induced cell apoptosis | IC50 (HEL cells [2]): 0.374 ± 0.177 µM | IC50 ([3]; PBMC, read-out: IC50, clonogenic potential (EEC)): 0.0018 ± 0.001 µM | IC50 ([3]; PBMC, read-out: IC50 of Cmp A in drug combination with PP242): 0.0001 µM | IC50 ([3]; PBMC, read-out: IC50 of Cmp A in drug combination with RAD001): 0.0002 µM | IC50 (K562 cells [4]): > 15 µM | IC50 (SET2 cells [5]; [20]): 0.047 µM | IC50 (SET2 cells [5]; [21]): 0.029 µM | IC50 (SET2 cells [6]; [20]): 0.0076 µM | IC50 (SET2 cells [6]; [21]): 0.004 µM | phosphorylated JAK2 [7]: markedly and dose-dependently reduced phosphorylation | phosphorylation of 4E-BP1 [7]: unaffected | phosphorylation of STAT5 [7]: markedly and dose-dependently reduced phosphorylation

NC(=O)NO [HuOH, hydroxyurea]
cell apoptosis (Annexin V-positive cells) (SET2 cells [1]): induced dose-dependent cell apoptosis | IC50 (SET2 cells [5]; SET2, read-out: IC50, proliferation inhibition): 330 µM | IC50 (HEL cells [8]): 410 µM | IC50 (K562 cells [9]): 4910 µM | phosphorylation of 4E-BP1 [7, 22]: did not affect | phosphorylation of STAT5 [7, 22]: did not affect

Cc1[nH]c2ccccc2c1CCNCc1ccc(/C=C/C(=O)NO)cc1 [Panobinostat]
IC50 (SET2 cells [5]; [23]): 0.007 ± 0.002 µM | IC50 (HEL cells [8]; Homo sapiens): 0.008 ± 0.003 µM | IC50 (K562 cells [9]; Homo sapiens): 0.031 ± 0.008 µM

CO[C@H]1C[C@@H]2CC[C@@H](C)[C@@](O)(O2)C(=O)C(=O)N2CCCC[C@H]2C(=O)O[C@H]([C@H](C)C[C@@H]2CC[C@@H](OCCO)[C@H](OC)C2)CC(=O)[C@H](C)/C=C(\C)[C@@H](O)[C@@H](OC)C(=O)[C@H](C)C[C@H](C)/C=C/C=C/C=C/1C [RAD001, Everolimus]
IC50 [10]: 0.01 ± 0.004 µM | IC50 [11]: > 10 µM | IC50 ([12]; BaF/3-EPOR V617F + EPO, read-out: IC50, proliferation inhibition): 1.23 µM | IC50 ([12]; BaF/3-EPOR V617F, absence of EPO, individual drug, read-out: IC50, proliferation inhibition): 0.651 ± 0.05 µM | IC50 ([12]; Mus musculus, BaF/3-EPOR V617F + EPO, read-out: IC50, proliferation inhibition): 1.21 µM | IC50 ([12]; Mus musculus, JAK2V617F Ba/F3-EPOR, proliferation, median of at least 3 experiments, read-out: IC50 of the mTOR inhibitor in drug combination with Cmp A): 0.363 µM | IC50 [13]: 2.6 µM | IC50 [14]: 0.022 ± 0.01 µM | cell cycle effect (HEL cells [15]): cell cycle arrest of SET2 and HEL cells in the G0/G1 phase | cell apoptosis (Annexin V-positive cells) (SET2 cells [1]): largely ineffective in inducing cell death; also recorded: did not induce cell death | STAT5 phosphorylation ([16]; evident at 60 min, up to 24 h, not shown): significantly downregulated | 4E-BP1 phosphorylation ([16]; persisted up to at least 24 h, data not shown): marked inhibition | JAK2 genotype V617F colonies (%) ([17]; Pat. # 1, RAD001 50 nM): 6% | JAK2 genotype Wild-type colonies (%) ([17]; Pat. # 1, RAD001 50 nM): 94% | % decrease V617F ([17]; Pat. # 1): 70% | JAK2 genotype V617F colonies (%) ([17]; Pat. # 2, RAD001 50 nM): 40% | JAK2 genotype Wild-type colonies (%) ([17]; Pat. # 2, RAD001 50 nM): 60% | % decrease V617F ([17]; Pat. # 2): 15% | JAK2 genotype V617F colonies (%) ([17]; Pat. # 3, RAD001 50 nM): 57% | JAK2 genotype Wild-type colonies (%) ([17]; Pat. # 3, RAD001 50 nM): 43% | % decrease V617F ([17]; Pat. # 3): 21% | JAK2 genotype V617F colonies (%) ([17]; Pat. # 4, RAD001 50 nM): 40% | JAK2 genotype Wild-type colonies (%) ([17]; Pat. # 4, RAD001 50 nM): 58% | % decrease V617F ([17]; Pat. # 4): 17% | JAK2 genotype V617F colonies (%) ([17]; Pat. # 5, RAD001 50 nM): 9% | JAK2 genotype Wild-type colonies (%) ([17]; Pat. # 5, RAD001 50 nM): 91% | % decrease V617F ([17]; Pat. # 5): 72% | % decrease V617F, Mean ± SD ([17]; mean of 5 patients, RAD001 50 nM): 39% and 39 ± 29% | IC50 (HEL cells [2]): 0.085 ± 0.03 µM | IC50 ([3]; PBMC, read-out: IC50 of the mTOR inhibitor in drug combination with Cmp A): 0.0019 µM | IC50 ([3]; PBMC from PV patients, individual drug, read-out: IC50, clonogenic potential (EEC)): 0.015 ± 0.01 µM | IC50 (K562 cells [4]): 10 µM | IC50 (SET2 cells [5]; Homo sapiens, SET-2, read-out: IC50 of the mTOR inhibitor in drug combination with Cmp A): 0.0031 µM | IC50 (SET2 cells [5]; [23]): 17 µM | IC50 (HEL cells [8]; Homo sapiens): 14 µM | IC50 (K562 cells [9]; Homo sapiens): 16 µM | clonogenic potential (UKE-1 cells): impaired the clonogenic potential | IC50 (SET2 cells [6]; Homo sapiens, SET-2, read-out: IC50 of the mTOR inhibitor in drug combination with Cmp A, SET2, clonogenic agar assay, median of at least 3 experiments): 0.007 µM | IC50 (SET2 cells [6]; read-out: IC50, clonogenic assay, SET2, colonies day 7, individual drug): 0.13 µM and 0.044 µM | IC50 (Ba/F3 JAK2 V617F cells): 0.006 ± 0.002 µM | IC50 ([18]; BaF3, 168 h, read-out: IC50, clonogenic assay): 0.004 ± 0.002 µM | IC50 ([18]; BaF3, read-out: IC50 of the mTOR inhibitor in drug combination with Cmp A): 0.0011 µM | cell cycle effect (SET2 cells [19]): cell cycle arrest of SET2 and HEL cells in the G0/G1 phase | phosphorylated JAK2 [7, 22]: unaffected | phosphorylation of 4E-BP1 [7, 22]: dose-dependently reduced phosphorylation; also recorded: inhibited the phosphorylation | phosphorylation of STAT5 [7, 22]: dose-dependently reduced phosphorylation; also recorded: appreciable decrease of STAT5 phosphorylation | total JAK2 [7, 22]: unaffected
